Experimental data from patent US7786141B2 (Vertex Pharmaceuticals Incorporated, priority 2004, dated 2010).

How the values were obtained:
M1 muscarinic receptor = biological target: T1, M1 muscarinic receptor (Homo sapiens, UniProt P11229); assay: Functional mobilization of intracellular calcium (FLIPR) in M1-CHO cells; type: cell-based; settings: M1 receptor, calcium mobilization; for Emax: read-out: M1 Efficacy
T1 construct: expressed in transfected cells; host or cells: CHO (M1-CHO)
T1 sequence (P11229 1-460): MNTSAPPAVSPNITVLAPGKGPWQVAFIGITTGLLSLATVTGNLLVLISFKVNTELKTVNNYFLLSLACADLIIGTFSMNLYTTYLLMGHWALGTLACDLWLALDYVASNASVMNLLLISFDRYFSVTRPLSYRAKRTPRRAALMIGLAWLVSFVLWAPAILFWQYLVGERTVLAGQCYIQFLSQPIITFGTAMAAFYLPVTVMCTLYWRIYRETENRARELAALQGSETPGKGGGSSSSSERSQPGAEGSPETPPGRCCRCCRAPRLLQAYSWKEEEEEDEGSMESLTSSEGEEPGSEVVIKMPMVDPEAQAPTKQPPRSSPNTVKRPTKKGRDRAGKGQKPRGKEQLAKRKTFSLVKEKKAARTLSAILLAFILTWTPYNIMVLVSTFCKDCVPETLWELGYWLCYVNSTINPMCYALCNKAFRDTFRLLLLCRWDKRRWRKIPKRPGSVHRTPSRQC
Summary of the method: (§1)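 CHO cells stably expressing human M1 or M4 receptor were loaded with Fluo-3 AM (or Calcium 3 dye) in Hepes-buffered saline, pH 7.4, with 1 mM probenecid, 0.5% final DMSO. Agonist mode: compound added directly; antagonist mode: 15 min preincubation before carbachol at EC80. FLIPR fluorescence recorded 60 sec.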

M4 muscarinic receptor = biological target: T2, M4 muscarinic receptor (Homo sapiens, UniProt P08173); assay: Functional mobilization of intracellular calcium (FLIPR) in M4-CHO cells; type: cell-based; settings: M4 receptor, calcium mobilization; for Emax: read-out: M4 Efficacy
T2 construct: expressed in transfected cells; host or cells: CHO (M4-CHO)
T2 sequence (P08173 1-479): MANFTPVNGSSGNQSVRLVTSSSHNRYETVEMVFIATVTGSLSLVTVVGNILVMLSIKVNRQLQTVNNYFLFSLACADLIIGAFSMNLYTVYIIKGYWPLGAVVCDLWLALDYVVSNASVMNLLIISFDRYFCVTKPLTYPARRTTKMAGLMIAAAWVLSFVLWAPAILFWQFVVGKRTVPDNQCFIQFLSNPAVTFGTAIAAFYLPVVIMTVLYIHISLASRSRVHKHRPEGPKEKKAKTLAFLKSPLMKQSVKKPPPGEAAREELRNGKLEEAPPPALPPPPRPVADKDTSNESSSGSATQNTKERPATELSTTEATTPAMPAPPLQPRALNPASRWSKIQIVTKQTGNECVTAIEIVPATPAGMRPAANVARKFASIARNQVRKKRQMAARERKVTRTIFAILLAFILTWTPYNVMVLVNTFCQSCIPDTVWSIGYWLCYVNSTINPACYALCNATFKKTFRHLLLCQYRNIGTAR
Summary of the method: as §1

Clc1ccc2c(c1)C1(CCN(CC3CCCCC3)CC1)CN2 [compound 157]
M1 Activity (M1 muscarinic receptor): xxx (activity was measured to be less than 0.1 μM) | Emax (M1 muscarinic receptor): 65 to 85% | M4 Activity (M4 muscarinic receptor): x (activity was measured to be greater than 1.0 μM) | Emax (M4 muscarinic receptor): > 85%

CC(=O)N[C@H]1CC2(CCN(C3C[C@H]4CC[C@@H]3C4)CC2)c2ccccc21 (some centres unmarked) [compound 158]
M1 Activity (M1 muscarinic receptor): xxx (activity was measured to be less than 0.1 μM) | Emax (M1 muscarinic receptor): > 85% | M4 Activity (M4 muscarinic receptor): x (activity was measured to be greater than 1.0 μM) | Emax (M4 muscarinic receptor): > 85%

CC(=O)NC1CC2(CCN(C3CCCCCC3)CC2)c2ccccc21 (centres unmarked) [compound 159]
M1 Activity (M1 muscarinic receptor): xx (activity was measured to be between 0.1 μM and 1.0 μM) | Emax (M1 muscarinic receptor): > 85% | M4 Activity (M4 muscarinic receptor): x (activity was measured to be greater than 1.0 μM) | Emax (M4 muscarinic receptor): > 85%

CC(C)COC(=O)N1C2CCC1CC(N1CCC3(CC1)COc1ccc(F)cc13)C2 (centres unmarked) [compound 160]
M1 Activity (M1 muscarinic receptor): xxx (activity was measured to be less than 0.1 μM) | Emax (M1 muscarinic receptor): > 85% | M4 Activity (M4 muscarinic receptor): xx (activity was measured to be between 0.1 μM and 1.0 μM) | Emax (M4 muscarinic receptor): > 85%

CC(=O)NC1CC2(CCN(C[C@H]3C[C@H]4CC[C@H]3C4)CC2)c2ccccc21 (some centres unmarked) [compound 161]
M1 Activity (M1 muscarinic receptor): xx (activity was measured to be between 0.1 μM and 1.0 μM) | Emax (M1 muscarinic receptor): > 85% | M4 Activity (M4 muscarinic receptor): x (activity was measured to be greater than 1.0 μM) | Emax (M4 muscarinic receptor): > 85%

COCCOC(=O)N1C2CCC1CC(N1CCC3(CC1)CN(C(=O)O[C@@H]1CCOC1)c1ccc(F)cc13)C2 (some centres unmarked) [compound 162]
M1 Activity (M1 muscarinic receptor): xxx (activity was measured to be less than 0.1 μM) | Emax (M1 muscarinic receptor): 65 to 85% | M4 Activity (M4 muscarinic receptor): x (activity was measured to be greater than 1.0 μM) | Emax (M4 muscarinic receptor): > 85%

CC(=O)N1CC2(CCN(CC3=CCCCC3)CC2)c2cc(F)ccc21 [compound 163]
M1 Activity (M1 muscarinic receptor): xxx (activity was measured to be less than 0.1 μM) | Emax (M1 muscarinic receptor): 65 to 85% | M4 Activity (M4 muscarinic receptor): xx (activity was measured to be between 0.1 μM and 1.0 μM) | Emax (M4 muscarinic receptor): > 85%

Clc1ccc2c(c1)C1(CCO2)CCN(C[C@@H]2C[C@H]3C=C[C@H]2C3)CC1 [compound 164]
M1 Activity (M1 muscarinic receptor): xx (activity was measured to be between 0.1 μM and 1.0 μM) | Emax (M1 muscarinic receptor): > 85% | M4 Activity (M4 muscarinic receptor): x (activity was measured to be greater than 1.0 μM) | Emax (M4 muscarinic receptor): > 85%

CCOC(=O)N1CCC(N2CCC3(CC2)CN(C(C)=O)c2ccc(-c4ccsc4)cc23)CC1 [compound 165]
M1 Activity (M1 muscarinic receptor): x (activity was measured to be greater than 1.0 μM) | Emax (M1 muscarinic receptor): 65 to 85% | M4 Activity (M4 muscarinic receptor): x (activity was measured to be greater than 1.0 μM) | Emax (M4 muscarinic receptor): > 85%

CC(C)OC(=O)N1C2CCC1CC(N1CCC3(CC1)CN(C(=O)OC1CCC1)c1ccc(F)cc13)C2 (centres unmarked) [compound 166]
M1 Activity (M1 muscarinic receptor): xxx (activity was measured to be less than 0.1 μM) | Emax (M1 muscarinic receptor): > 85% | M4 Activity (M4 muscarinic receptor): x (activity was measured to be greater than 1.0 μM) | Emax (M4 muscarinic receptor): > 85%

CCOC(=O)N1C2CCC1CC(N1CCC3(CC1)CN(C(=O)OC)c1ccc(F)cc13)C2 (centres unmarked) [compound 167]
M1 Activity (M1 muscarinic receptor): xxx (activity was measured to be less than 0.1 μM) | Emax (M1 muscarinic receptor): 65 to 85% | M4 Activity (M4 muscarinic receptor): xx (activity was measured to be between 0.1 μM and 1.0 μM) | Emax (M4 muscarinic receptor): > 85%

CC(=O)N1CC2(CCN(C3CCCN(C(=O)OCCF)CC3)CC2)c2cc(F)ccc21 (centres unmarked) [compound 168]
M1 Activity (M1 muscarinic receptor): xx (activity was measured to be between 0.1 μM and 1.0 μM) | M4 Activity (M4 muscarinic receptor): xx (activity was measured to be between 0.1 μM and 1.0 μM) | Emax (M4 muscarinic receptor): > 85%

CCOC(=O)N1CCC(N2CCC3(CC2)CN(C(=O)N(C)c2ccccc2)c2ccc(F)cc23)CC1 [compound 169]
M1 Activity (M1 muscarinic receptor): xxx (activity was measured to be less than 0.1 μM) | Emax (M1 muscarinic receptor): 65 to 85% | M4 Activity (M4 muscarinic receptor): x (activity was measured to be greater than 1.0 μM) | Emax (M4 muscarinic receptor): > 85%

CC(C)OC(=O)N1C2CCC1CC(N1CCC3(CC1)CN(S(C)(=O)=O)c1ccc(F)cc13)C2 (centres unmarked) [compound 170]
M1 Activity (M1 muscarinic receptor): xx (activity was measured to be between 0.1 μM and 1.0 μM) | Emax (M1 muscarinic receptor): 65 to 85% | M4 Activity (M4 muscarinic receptor): x (activity was measured to be greater than 1.0 μM) | Emax (M4 muscarinic receptor): > 85%

CC(=O)N[C@@H]1CC2(CCN([C@H]3C[C@@H]4CC[C@H]3C4)CC2)c2ccccc21 [compound 171]
M1 Activity (M1 muscarinic receptor): xx (activity was measured to be between 0.1 μM and 1.0 μM) | Emax (M1 muscarinic receptor): > 85% | M4 Activity (M4 muscarinic receptor): x (activity was measured to be greater than 1.0 μM) | Emax (M4 muscarinic receptor): 65 to 85%

CC(=O)N1CC2(CCN(C3CCN(C(=O)OCCF)CC3)CC2)c2cc(F)ccc21 [compound 172]
M1 Activity (M1 muscarinic receptor): x (activity was measured to be greater than 1.0 μM) | Emax (M1 muscarinic receptor): > 85% | M4 Activity (M4 muscarinic receptor): x (activity was measured to be greater than 1.0 μM) | Emax (M4 muscarinic receptor): 65 to 85%

CCOC(=O)N1CCC(N2CCC3(CC2)CN(C(=O)OC)c2ccc(F)cc23)CC1 [compound 173]
M1 Activity (M1 muscarinic receptor): xxx (activity was measured to be less than 0.1 μM) | Emax (M1 muscarinic receptor): 65 to 85% | M4 Activity (M4 muscarinic receptor): xx (activity was measured to be between 0.1 μM and 1.0 μM) | Emax (M4 muscarinic receptor): > 85%

CC(=O)N1CC2(CCN(C3CC4CCC(C3)N4C(=O)OC3CCC3)CC2)c2cc(F)ccc21 (centres unmarked) [compound 174]
M1 Activity (M1 muscarinic receptor): xxx (activity was measured to be less than 0.1 μM) | Emax (M1 muscarinic receptor): > 85% | M4 Activity (M4 muscarinic receptor): x (activity was measured to be greater than 1.0 μM) | Emax (M4 muscarinic receptor): 65 to 85%

Fc1ccc2c(c1)C1(CCN([C@@H]3C[C@@H]4CC[C@H]3C4)CC1)CO2 [compound 175]
M1 Activity (M1 muscarinic receptor): xxx (activity was measured to be less than 0.1 μM) | Emax (M1 muscarinic receptor): 65 to 85% | M4 Activity (M4 muscarinic receptor): xx (activity was measured to be between 0.1 μM and 1.0 μM) | Emax (M4 muscarinic receptor): 65 to 85%

CCOC(=O)N1CCC(CN2CCC3(CC2)COc2ccc(Cl)cc23)CC1 [compound 176]
M1 Activity (M1 muscarinic receptor): xx (activity was measured to be between 0.1 μM and 1.0 μM) | Emax (M1 muscarinic receptor): > 85% | M4 Activity (M4 muscarinic receptor): xx (activity was measured to be between 0.1 μM and 1.0 μM) | Emax (M4 muscarinic receptor): 65 to 85%

CCOC(=O)N1CCC(N2CCC3(CC2)CN(C(C)=O)c2ccc(-c4ccc(S(C)(=O)=O)cc4)cc23)CC1 [compound 177]
M1 Activity (M1 muscarinic receptor): xxx (activity was measured to be less than 0.1 μM) | Emax (M1 muscarinic receptor): 65 to 85% | M4 Activity (M4 muscarinic receptor): xx (activity was measured to be between 0.1 μM and 1.0 μM) | Emax (M4 muscarinic receptor): 65 to 85%

Clc1ccc2c(c1)C1(CCO2)CCN(C2CCOCC2)CC1 [compound 178]
M1 Activity (M1 muscarinic receptor): xx (activity was measured to be between 0.1 μM and 1.0 μM) | Emax (M1 muscarinic receptor): > 85% | M4 Activity (M4 muscarinic receptor): x (activity was measured to be greater than 1.0 μM) | Emax (M4 muscarinic receptor): 65 to 85%

CCOC(=O)N1C2CCC1CC(N1CCC3(CC1)CN(C(=O)C1CCC1)c1ccc(F)cc13)C2 (centres unmarked) [compound 179]
M1 Activity (M1 muscarinic receptor): xx (activity was measured to be between 0.1 μM and 1.0 μM) | Emax (M1 muscarinic receptor): > 85% | M4 Activity (M4 muscarinic receptor): x (activity was measured to be greater than 1.0 μM) | Emax (M4 muscarinic receptor): 65 to 85%

CC(=O)NC1CC2(CCN(CC3CC4C=CC3C4)CC2)c2ccccc21 (centres unmarked) [compound 180]
M1 Activity (M1 muscarinic receptor): xxx (activity was measured to be less than 0.1 μM) | Emax (M1 muscarinic receptor): 65 to 85% | M4 Activity (M4 muscarinic receptor): xxx (activity was measured to be less than 0.1 μM) | Emax (M4 muscarinic receptor): 65 to 85%
